In US9238715B2, “Polymerizable composition for ophthalmic and medical use and antimicrobial composition obtained by polymerizing the polymerizable composition” (NANYANG TECHNOLOGICAL UNIVERSITY, priority 2010, dated 2016) one finds MIC data, which are given here for 2 substances.

Common to all, as to experiment: MIC by microtiter dilution in Mueller Hinton Broth
Common to all, as to conditions: 5×10^5 CFU/ml, 37° C., 18 hours, A600

In one assay the test system is P. aeruginosa. It is filed as cell-based, Pseudomonas aeruginosa. The method, then: (§1) Minimal inhibitory concentrations (MIC) were determined by a standard microtiter dilution method in Mueller Hinton Broth (MHB) medium. Bacteria cells were grown overnight at 37° C. in MHB medium and diluted to a bacteria concentration of 10^6 colony forming units (CFU)/ml. The bacteria concentration was adjusted to 5×10^5 CFU/ml by adding 100 μl of a suspension of the bacteria cultured under the above conditions to 100 μl of a polylysine aqueous solution diluted to 10^3 to 1 μg/ml, and samples were prepared. The samples were incubated at 37° C. for 18 hours, and the MICs (lowest polylysine concentration that inhibited cell growth) after 18 hours were determined.

A further assay deals with S. marcescence. In kind it is cell-based, Serratia marcescens. Here is the method:
as §1

For a further assay, the system named is S. aureus. It is filed as cell-based, Staphylococcus aureus. The method, then: as §1
The test system of another assay is E. Coli. In kind it is cell-based, Escherichia coli. Here is the method:
as §1

In a further assay the test system is F. solani. It is filed as cell-based, Fusarium solani. The method, then: as §1
The next assay deals with C. albicans. In kind it is cell-based, Candida albicans. Here is the method: as §1

Regarding epsilon-polylysine [EPL], the minimum inhibitory concentration (MIC) worked out at 7.8 µg/mL against P. aeruginosa; 15.6 µg/mL in the assay on S. marcescence; 7.8 µg/mL against S. aureus; 7.8 µg/mL against E. Coli; 109 µg/mL against F. solani; 54 µg/mL in the assay with C. albicans.
Regarding “methacrylated epsilon-polylysine [MA-EPL]”, the minimum inhibitory concentration (MIC) amounted to 7.8 µg/mL in the assay with P. aeruginosa; 15.6 µg/mL in the assay with S. marcescence; 7.8 µg/mL in the assay with E. Coli; 54 µg/mL against F. solani; 27 µg/mL with C. albicans.
